Test results taken from PubChem BioAssay (NCI).
Several values for one entry are separate records, joined by “and”; a condition that tells them apart may be missing. Equal entries are not always repeated.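 In this assay, cells in 96-well plates receive the compound at five concentrations for 48 hours. Endpoints are linearly interpolated between the surrounding concentrations. GI50 = concentration required for 50% inhibition of growth. TGI denotes the concentration required for complete inhibition of growth.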

How the values were obtained:
Assay in all cases: NCI anticancer screen, dose series, 48 h
HOP-62 NSCLC = tested on: HOP-62 NSCLC
K-562 leukemia = tested on: K-562 leukemia
KM12 colon = tested on: KM12 colon
LOX IMVI melanoma = tested on: LOX IMVI melanoma
NCI-H460 lung = tested on: NCI-H460 lung
OVCAR-3 ovarian = tested on: OVCAR-3 ovarian
OVCAR-4 ovarian = tested on: OVCAR-4 ovarian
OVCAR-8 ovarian = tested on: OVCAR-8 ovarian
SF-295 CNS = tested on: SF-295 CNS
UO-31 renal = tested on: UO-31 renal

| SMILES | GI50 (HOP-62 NSCLC) [µM] | TGI (HOP-62 NSCLC) [µM] | GI50 (K-562 leukemia) [µM] | TGI (K-562 leukemia) [µM] | GI50 (KM12 colon) | TGI (KM12 colon) [µM] | GI50 (LOX IMVI melanoma) | TGI (LOX IMVI melanoma) | GI50 (NCI-H460 lung) | TGI (NCI-H460 lung) [µM] | GI50 (OVCAR-3 ovarian) | TGI (OVCAR-3 ovarian) [µM] | GI50 (OVCAR-4 ovarian) | TGI (OVCAR-4 ovarian) [µM] | GI50 (OVCAR-8 ovarian) | TGI (OVCAR-8 ovarian) [µM] | GI50 (SF-295 CNS) | TGI (SF-295 CNS) [µM] | GI50 (UO-31 renal) | TGI (UO-31 renal) [µM] |
| --- | --- | --- | --- | --- | --- | --- | --- | --- | --- | --- | --- | --- | --- | --- | --- | --- | --- | --- | --- | --- |
| NS(=O)(=O)c1ccc(-n2nc3c(c2-c2ccc(Cl)cc2)Cc2ccccc2-3)cc1 | 30.4 | 49.4 | 4.98 | 17.2 | 19.9 µM | 52.8 | 19 µM | 37.4 µM | 32.1 µM | > 100 | 17 µM | 31.6 | 15 µM | 30.3 | 21.6 µM | 44 | 29.8 µM | 82.3 | 9.57 µM | 21.8 |
| Cn1c(-c2c(N)n(Nc3cccc(Cl)c3)c3nc(C#N)c(C#N)nc23)nc2ccccc21 | 15.6 | 43.4 | 5.43 | 25.5 | 9.57 µM | 26.1 | 5.25 µM | 11.5 µM | 13.3 µM | > 50 | 6.96 µM | 33.5 | 1.36 µM | 16.4 | 7.56 µM | 26.4 | 11 µM | 27.8 | 3.74 µM | 11.3 |
| CN(CCCCCl)P(=O)(OCCS(=O)(=O)CC(NC(=O)CCC(N)C(=O)O)C(=O)NC(C(=O)O)c1ccccc1)OCC1OC(n2ccc(N)nc2=O)C(F)(F)C1O (stereo not given) | 0.0861 | > 85.9 | 1.58 | > 100 | 14.6 µM | > 100 | 0.467 µM | > 100 µM | 0.104 µM | > 100 | 14.7 µM | > 100 | > 100 µM | > 100 | < 0.0172 µM | > 100 | 0.334 µM | 2.71 | < 0.0213 µM | 2.7 |
| CC(=O)c1ccc2c(c1)C1C=CCC1[C@H](c1cc3c(cc1Br)OCO3)N2 (stereo not given in full) | 1.9 | 28.9 | 0.794 | – | 0.581 µM | 11.3 | 1.31 µM | 2.62 µM | 0.954 µM | 4.81 | 0.48 µM | 1.08 | 1.63 µM | > 50.2 | 1.63 µM | 13 | 0.382 µM | 3.07 | 1.89 µM | 34.9 |
| COc1cc(F)c(F)c(Nc2ccc(I)cc2F)c1NS(=O)(=O)C1(C[C@H](O)CO)CC1 | 0.184 | > 10 | 1.34 | > 10 | 0.371 µM | > 10 | 0.556 µM | > 10 µM | 1.62 µM | > 10 | > 6.76 µM | > 10 | 3.44 µM | > 10 | > 6.48 µM | > 10 | > 5.78 µM | > 10 | 0.295 µM | > 10 |
| COc1ccc2cc(/C=C/C(=O)c3ccc(Cl)cc3Cl)ccc2c1 | 39.3 | > 100 | 20.5 | 68.8 | 29 µM | 85.4 | 24.1 µM | 60.4 µM | 27.4 µM | > 100 | 26.2 µM | > 100 | 74.1 µM | > 100 | 26.6 µM | 75.4 | 83.3 µM | > 100 | 36.6 µM | > 100 |
| COC(=O)C1C(O)CCC2CN3CCc4c([nH]c5ccccc45)C3CC21 (stereo not given) | > 100 | > 100 | – | > 100 | – | > 100 | – | > 100 µM | – | > 100 | – | > 100 | > 100 µM | > 100 | – | > 100 | – | > 100 | – | > 100 |
| O=C(NOC[C@H](O)CO)c1ccc(F)c(F)c1Nc1ccc(I)cc1F | 0.00599 | > 100 | – | > 100 | 0.0456 µM and 0.036 µM | > 100 | < 0.0127 µM and 0.0397 µM | 19.9 µM and > 6.5 µM | 15 µM and > 3.36 µM | > 100 | 37.6 µM and > 10 µM | > 100 | 8.76 µM and > 10 µM | > 100 | 21.7 µM and > 7.5 µM | > 100 | 14.5 µM and > 10 µM | > 100 | 0.302 µM and 0.0357 µM | > 72.2 |
| O=C1c2ccccc2-[n+]2ccc3c([nH]c4ccccc43)c21 | – | 2.56 | – | 3.31 | – | 0.636 | – | 0.81 µM | – | 1.43 | – | 0.432 | – | 2.02 | – | > 100 | – | 1.04 | – | 3.28 |
| CCOC(=O)C(Cc1c[nH]c2c(N(CCO)CCO)cccc12)(NC(C)=O)C(=O)OCC | > 1000 | > 1000 | 194 | 516 | 302 µM | 978 | 141 µM | 283 µM | 642 µM | > 1000 | 270 µM | 873 | 196 µM | > 1000 | > 1000 µM | > 1000 | 148 µM | > 1000 | > 1000 µM | > 1000 |
| O=c1/c(=C/c2ccccc2[N+](=O)[O-])sc2nc3ccccc3n12 | – | > 46.4 | – | > 46.4 | – | > 46.4 | – | 31.9 µM | – | > 46.4 | – | > 31.6 | – | > 46.4 | – | > 46.4 | – | 41.4 | – | > 46.4 |
| COc1ccc(NC(=O)CSC2=C(Nc3cccc(Br)c3)C(=O)N(Cc3ccccc3)C2=O)cc1Cl | > 100 | > 100 | 4.41 | > 100 | 65.5 µM | > 100 | 40.4 µM | > 100 µM | 29.9 µM | > 100 | > 100 µM | > 100 | > 100 µM | > 100 | > 100 µM | > 100 | > 100 µM | > 100 | 12.5 µM | > 100 |
| Nc1nonc1-c1nc2cnccc2n1C1CC1 | 5.33 | > 16.8 | > 21 | > 25 | 6.46 µM | > 20.9 | 6.54 µM | > 18 µM | 6.83 µM | > 25 | 7.55 µM | > 25 | 7.4 µM | > 25 | 6.83 µM | > 25 | 7.38 µM | > 25 | 2.09 µM | > 25 |
| COC(=O)/C=C(C)/C=C/C1OC(C)OCC1O (stereo not given) | – | > 100 | – | > 100 | – | > 100 | – | > 100 µM | – | > 100 | – | > 100 | – | > 100 | – | > 100 | – | > 100 | – | > 100 |
| CCOC(=O)C1=C(Nc2ccc(Cl)cc2Cl)OCC1=O | – | > 100 | – | > 100 | – | > 100 | – | > 100 µM | – | > 100 | – | > 100 | – | > 100 | – | > 100 | – | > 100 | – | > 100 |
| CN(C)CCNc1ccc(CO)c2sc3ccc(O)cc3c(=O)c12 | – | 4.23 | – | > 20.9 | – | 7.3 | – | 6.75 µM | – | 2.87 | – | 23.5 | – | 13.1 | – | 8.89 | – | 12.1 | – | 6.68 |
| O=[N+]([O-])c1cc(Cl)c2[nH]c3c(Cl)cc([N+](=O)[O-])cc3c2c1 | 0.971 | > 38.4 | 0.243 | > 100 | 0.354 µM | > 100 | 0.308 µM | > 42 µM | 0.311 µM | > 100 | 0.279 µM | > 100 | 0.263 µM | > 100 | 0.253 µM | 1.23 | 0.229 µM | 1.99 | 0.189 µM | 1.38 |
